The values below come from patent publication US20240123079A1 (Seagen Inc., priority 2021, published 2024).

The subject of the first test is THP1-Dual™ reporter cells. Description: THP1-Dual cell reporter assay (IRF-Lucia luciferase reporter). Format: cell-based, human. Conditions: ADCs: drug linker conjugated to a targeted mAb, 48 h. In short, it runs like this:
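THP1-Dual monocytic cells (~100,000/well) were exposed to compound for 24 h (ADCs 48 h). Secreted IRF-driven Lucia luciferase in the supernatant was quantified by QUANTI-Luc luminescence.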
As for `CCn1nc(C)cc1C(=O)Nc1nc2cc(S(N)(=O)=O)ccc2n1C/C=C/Cn1c(NC(=O)c2cc(C)nn2CC)nc2cc(C(N)=O)cc(OCCC3CN(C(=O)CCN4C(=O)C=CC4=O)C3)c21` [Compound 144, (E)-7-(2-(1-(3-(2,5-dioxo-2,5-dihydro-1H-pyrrol-1-yl)propanoyl)azetidin-3-yl)ethoxy)-2-(1-ethyl-3-methyl-1H-pyrazole-5-carboxamido)-1-(4-(2-(1-ethyl-3-methyl-1H-pyrazole-5-carboxamido)-5-sulfamoyl-1H-benzo[d]imidazol-1-yl)but-2-en-1-yl)-1H-benzo[d]imidazole-5-carboxamide], the “EC50 (ng/mL)” value is >10,000 ng/mL.

The test is the same for the next values; noted with them: Homo sapiens, THP1-Dual; free compounds, 24 h, Lucia reporter signal; read-out: EC50.
Regarding `CCn1nc(C)cc1C(=O)Nc1nc2cc(S(N)(=O)=O)ccc2n1C/C=C/Cn1c(NC(=O)c2cc(C)nn2CC)nc2cc(C(N)=O)cc(OCCCOC3CNC3)c21` [Compound 137, (E)-7-(3-(azetidin-3-yloxy)propoxy)-2-(1-ethyl-3-methyl-1H-pyrazole-5-carboxamido)-1-(4-(2-(1-ethyl-3-methyl-1H-pyrazole-5-carboxamido)-5-sulfamoyl-1H-benzo[d]imidazol-1-yl)but-2-en-1-yl)-1H-benzo[d]imidazole-5-carboxamide], the concentration for a half-maximal effect (EC50) (as a rule, the concentration giving half of the maximal effect) was 1.69 µM.

`CCn1nc(C)cc1C(=O)Nc1nc2cc(S(N)(=O)=O)ccc2n1C/C=C/Cn1c(NC(=O)c2cc(C)nn2C)nc2cc(C(N)=O)cc(OCCCOC3CNC3)c21` [Compound 138]: the EC50 was over 5 µM.

As for `CCn1nc(C)cc1C(=O)Nc1nc2cc(S(N)(=O)=O)ccc2n1C/C=C/Cn1c(NC(=O)c2cc(C)nn2C)nc2cc(C(N)=O)cc(OCCCNC)c21` [Compound 139], the EC50 is over 4 µM.

As to `CCn1nc(C)cc1C(=O)Nc1nc2cc(C(N)=O)cc(OC)c2n1C/C=C/Cn1c(NC(=O)c2cc(C)nn2C)nc2cc(C(N)=O)cc(OCCC3CNC3)c21` [Compound 140, (E)-7-(2-(azetidin-3-yl)ethoxy)-1-(4-(5-carbamoyl-2-(1-ethyl-3-methyl-1H-pyrazole-5-carboxamido)-7-methoxy-1H-benzo[d]imidazol-1-yl)but-2-en-1-yl)-2-(1,3-dimethyl-1H-pyrazole-5-carboxamido)-1H-benzo[d]imidazole-5-carboxamide], the EC50 came out at 1.79 µM.

With `CCc1nc(C)oc1C(=O)Nc1nc2cc(C(N)=O)cc(OCCC3CNC3)c2n1C/C=C/Cn1c(NC(=O)c2cc(C)nn2CC)nc2cc(C(N)=O)cc(OC)c21` [Compound 141, (E)-N-(7-(2-(azetidin-3-yl)ethoxy)-5-carbamoyl-1-(4-(5-carbamoyl-2-(1-ethyl-3-methyl-1H-pyrazole-5-carboxamido)-7-methoxy-1H-benzo[d]imidazol-1-yl)but-2-en-1-yl)-1H-benzo[d]imidazol-2-yl)-4-ethyl-2-methyloxazole-5-carboxamide], the EC50 came out at 0.159 µM.

Regarding `CCn1nc(C)cc1C(=O)Nc1nc2cc(C(N)=O)cc(OC)c2n1C/C=C/Cn1c(NC(=O)c2cc(C)nn2C)nc2cc(C(N)=O)cc(OCCCOC3CNC3)c21` [Compound 142, (E)-7-(3-(azetidin-3-yloxy)propoxy)-1-(4-(5-carbamoyl-2-(1-ethyl-3-methyl-1H-pyrazole-5-carboxamido)-7-methoxy-1H-benzo[d]imidazol-1-yl)but-2-en-1-yl)-2-(1,3-dimethyl-1H-pyrazole-5-carboxamido)-1H-benzo[d]imidazole-5-carboxamide], the EC50 was determined as 1.12 µM.

Consider `CCc1nc(C)oc1C(=O)Nc1nc2cc(C(N)=O)cc(OCCCOC3CNC3)c2n1C/C=C/Cn1c(NC(=O)c2cc(C)nn2CC)nc2cc(C(N)=O)cc(OC)c21` [Compound 143, (E)-N-(7-(3-(azetidin-3-yloxy)propoxy)-5-carbamoyl-1-(4-(5-carbamoyl-2-(1-ethyl-3-methyl-1H-pyrazole-5-carboxamido)-7-methoxy-1H-benzo[d]imidazol-1-yl)but-2-en-1-yl)-1H-benzo[d]imidazol-2-yl)-4-ethyl-2-methyloxazole-5-carboxamide], for which the EC50 was determined as 0.155 µM.
